Assay: gradient 5% acetonitrile 3 min, to 50% in 2 min, to 85% in 15 min, held 3 min, 100 µL/min
Settings: column: Zorbax Extend-C18 2.1 x 50 mm; eluents: water / acetonitrile, 0.1% formic acid
Outline: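 Over 3 months, pure standards in mixtures of ~100 molecules were run by HPLC coupled to a quadrupole time-of-flight mass spectrometer in positive and negative ionization mode. The column was a Zorbax Extend-C18 (2.1 × 50 mm, 1.8 μm) at 100 μL/min, eluted with water and acetonitrile each holding 0.1% formic acid, with 40 μL dead and 900 μL dwell volumes. Retention time was determined from adduct peaks chosen by software and checked manually.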

| SMILES | RP-LC retention time [s] |
| --- | --- |
| CCc1cccc(C)c1NC(=O)Cn1cnc2nc(N3CCC(C(=O)NC)CC3)sc2c1=O | 646 |
| CCc1nc(OCC(=O)Nc2ccc(Cl)cc2C(F)(F)F)c2ccccc2n1 | 942 |
| COc1cc(Nc2cc(C(=O)N3CCC(C)CC3)nc3ccc(C)cc23)cc(OC)c1OC | 703 |
| Cc1ccc(-c2noc(-c3ccc(N4CCN(c5ccccn5)CC4)nc3)n2)cc1 | 805 |
| CCC1c2nccn2CCCN1C(=O)c1ccc2c(c1)OCO2 (stereo not drawn) | 593 |
| Cc1cccc(N2CCN(C(=O)c3cc(C)n4nccc4n3)CC2)c1 | 829 |
| Cc1nc(-c2cc(S(=O)(=O)Nc3ccc(F)c(Cl)c3)c(C)s2)cs1 | 1030 |
| CCS(=O)(=O)Nc1ccc2nc(N3CCN(c4cc(C)ccc4C)CC3)cc(C(=O)O)c2c1 | 607 |
| COCCCn1c(=O)c2ccccc2n(Cc2nc(-c3ccccc3OC)no2)c1=O | 874 |
| Cc1nnc(NC(=O)CSc2ccc(-c3sc(-c4cccnc4)nc3C)nn2)s1 | 622 |
| CC(C)CC(=O)NCC12CCC=C1N(C)C(=O)CC2 (stereo not drawn) | 691 |
| COc1ccccc1NC(=O)Cn1c(C(F)(F)F)nc2cc3c(cc21)OCCO3 | 886 |
| Cc1cccc(NC(=O)N2CCN(c3nc4ccccc4nc3C(F)(F)F)CC2)c1 | 1120 |
| Cc1nc(-c2noc(-c3ccccc3)n2)cn1CC(=O)N1CCc2ccccc21 | 860 |
| COCC(=O)N(CC(=O)N1CCc2sccc2C1COc1ccc(Cl)c(C)c1)C1CC1 (stereo not drawn) | 960 |
| Nc1ccc2c3c(cccc13)C(=O)NC2=O | 657 |
| COCCC(=O)Nc1ccc(-c2nc(Cn3nc(C)cc3C)c(C)o2)cc1 | 729 |
| Cc1ccccc1N1CCN(c2nccn3nc(-c4ccccc4)cc23)CC1 | 1300 |
| Cc1[nH]c(C(=O)N2CCC(CC(=O)NCCC3=CCCCC3)CC2)c(C)c1C | 910 |
| COc1ccc(-n2c(=O)c3sccc3n(Cc3nc(-c4ccccc4OC)no3)c2=O)cc1 | 856 |
| CCc1ccc2[nH]c3c(c(=O)c2c1)CN(CC(=O)NCc1ccc(F)cc1)CC3 | 626 |
| CCN(C(=O)Cn1ccc2c(=O)n(C)c(=O)n(C)c21)c1cccc(Cl)c1 | 747 |

| SMILES | RP-LC retention time [s] |
| --- | --- |
| CC(C)(Oc1ccc(Cl)cc1)C(=O)OCn1nnc2ccccc2c1=O | 1010 |
| Cc1cccc(NS(=O)(=O)c2ccc3c(c2)CCCC(=O)N3)c1C | 813 |
| COc1ccc2nc(C(=O)NCc3cccc(Cl)c3)cn2n1 | 846 |
| CCCCN(CCCNC(=O)C1CCN(S(=O)(=O)CCC)CC1)Cc1ccccc1 | 672 |
| COc1ccc(CNC(=O)N2CC(c3nc(C)no3)C3(CCOCC3)C2)cc1 (stereo not drawn) | 680 |
| CCCn1cc(S(=O)(=O)NCc2ccc(F)cc2)c2cccnc21 | 912 |
| COc1ccc(-c2cc(N3CCCC(C(=O)Nc4cccc5cccnc45)C3)ncn2)cc1 (stereo not drawn) | 629 |
| COc1ccc(C2Cn3cnc(C(=O)N4CCC(C(=O)NC5CCCCC5)CC4)c3CO2)cc1 (stereo not drawn) | 697 |
| O=C(N[C@H]1C[C@@H]2C[C@H]1N(C(=O)c1ccc(F)c(Cl)c1)C2)c1ccccc1 | 850 |
| O=C(Cc1c[nH]c2ncccc12)NCC1CCCCC1 | 644 |
| O=C(NCCCN1CCCC1=O)c1ccc2ncnc(N3CCCCC3)c2c1 | 584 |
| COc1ccc(OC)c(NC(=O)NCc2cccn2Cc2ccccc2)c1 | 927 |
| Cn1c(=O)c(N2CCC(NC(=O)Nc3ccc(F)cc3F)CC2)nc2ccccc21 | 888 |
| COc1ccc2c(c1)C1(CCN(S(=O)(=O)c3cccs3)C1)C(=O)N2 (stereo not drawn) | 790 |
| Cc1ccc2c(c1)N(S(C)(=O)=O)CCC(C(=O)Nc1cccc(C)c1C)O2 (stereo not drawn) | 945 |
| CCCNC(=O)C1CCN(c2ccc(SCC(=O)Nc3c(F)cccc3F)nn2)CC1 | 614 |
| CC1=C(c2ccc(C)c(C)c2)S(=O)(=O)N=C1N1CCCN(C(=O)NC(C)(C)C)CC1 | 888 |
| Cc1[nH]c2ccccc2c1C(=O)C(=O)Nc1ccccc1 | 816 |
| CC1CCN(S(=O)(=O)c2ccc3nn(C)c(=O)n3c2)CC1 | 744 |
| CC(=O)Nc1ccc(OC[C@](C)(O)C(=O)Nc2ccc([N+](=O)[O-])c(C(F)(F)F)c2)cc1 | 858 |
| COCCNC(=O)Cc1ccc(NC(=O)c2ccc(C(C)(C)C)cc2)cc1 | 790 |
| Cc1ccccc1-c1nc2cnccn2c1NCCC(=O)NCc1cccs1 | 649 |

| SMILES | RP-LC retention time [s] |
| --- | --- |
| Cn1c(=O)c(N2CCC(C(=O)NCc3ccco3)CC2)nc2ccccc21 | 774 |
| CCCN(Cc1ccc(OC)c(OC)c1)Cc1cc(=O)n2ccc(C)cc2n1 | 613 |
| O=C(N1CCC(n2nc(-c3ccsc3)ccc2=O)CC1)C1(c2ccccc2)CC1 | 869 |
| Cc1ccc(NC(=O)CN2C(=O)CN(C)C(=O)c3ccccc32)c(Br)c1 | 734 |
| O=C(Cc1nnc(-c2ccc3ncccc3c2)o1)NCc1ccc(F)cc1Cl | 752 |
| Cc1cccc(-c2nnc(-c3cccc(S(=O)(=O)N(C)C)c3)o2)c1 | 982 |
| CCN(CC)C(=O)c1ccc2c(c1)N(CC(=O)NCc1ccco1)C(=O)C1CCCCN21 (stereo not drawn) | 783 |
| CCN(CC)CCCNc1ccc(-c2nc(-c3cccc(F)c3)no2)cn1 | 707 |
| CC(=O)NCCc1csc(C2CCN(C(=O)C3CCCC3)CC2)n1 | 676 |
| CC(=O)N1CCc2cc(N3CC(C(=O)Nc4ccc(N5CCOCC5)cc4)CC3=O)ccc21 (stereo not drawn) | 629 |
| O=C(O)c1cn(Cc2ccc(F)cc2)c(=O)c2ccccc12 | 806 |
| O=C(Nc1ccc(NC(=O)N2CCCC(C(=O)NCC3CC3)C2)cc1)NC1CCCC1 (stereo not drawn) | 692 |
| O=C(Nc1ccc(F)cc1)c1cnc(-c2ccc(F)cc2)nc1-c1ccncc1 | 898 |
| Cc1ccc(-c2noc(C3CC(=O)N(c4ccccc4Cl)C3)n2)cc1 (stereo not drawn) | 1010 |
| CCSc1nc2ccc(NS(=O)(=O)c3cccc(F)c3)cc2s1 | 998 |
| CC(C)c1cc(C(=O)Nc2ccc(F)c(Cl)c2)nc2ccnn12 | 1210 |
| Fc1ccc(C(c2nnc(-c3ccccc3Cl)o2)N2CCN(c3ccccn3)CC2)cc1 (stereo not drawn) | 774 |
| COC(=O)c1cc(S(=O)(=O)N2CCCC2C(=O)N2CCC(C)CC2)cn1C (stereo not drawn) | 770 |
| COc1ccccc1CNC(=O)C1CCN(c2ccc(SCc3ccccc3)nn2)CC1 | 778 |
| CNC(=O)c1nc(C(C)(C)NC(=O)c2ccoc2)nc2c1OCO2 | 624 |
| O=C(O)c1ccc2c(c1)CC(=O)N2Cc1cccc(F)c1 | 729 |
| CCC(=O)Nc1ccc(-n2cnc(C(=O)NC3CCC(C)CC3)c2)nc1 (stereo not drawn) | 710 |

| SMILES | RP-LC retention time [s] |
| --- | --- |
| Cc1ccsc1C(=O)NCCn1c(=O)n(Cc2ccc(F)cc2)c2cccnc21 | 824 |
| Cc1ccc(-c2nnc(-c3nc(NCCN4CCCC4)c4ccccc4n3)o2)cc1 | 713 |
| O=C(CC1CCCC1)N1CCC(c2noc(-c3cnccn3)n2)C1 (stereo not drawn) | 726 |
| CCCc1nc(C(C)(C)O)c(C(=O)OCc2oc(=O)oc2C)n1Cc1ccc(-c2ccccc2-c2nn[nH]n2)cc1 | 832 |
| Cc1ccc(NS(=O)(=O)c2c(C)nc3sc4cc(C)ccc4n3c2=O)cc1 | 1160 |
| CCOC(=O)c1cnc2nc(C)ccc2c1Nc1ccc(F)c(F)c1 | 703 |
| C[C@@H]1CCNC(=O)c2cc3ccc(C(=O)Nc4nc5ccccc5n4CCCN(C)C)cc3n21 | 642 |
| CC(C)n1cnc2cc(CNC(=O)CCc3ccccc3)ccc21 | 631 |
| C[C@@H]1OC(Oc2ccccc2-c2cc(=O)c3c(O)cc(O)c([C@@H]4O[C@H](CO)[C@@H](O)[C@H](O)[C@H]4O)c3o2)[C@H](O)[C@H](O)[C@H]1O (stereo partly drawn) | 622 |
| CCOc1ccc(NC(=O)c2cnc(-c3ccc(OC)cc3)nc2-c2ccncc2)cc1 | 875 |
| Cc1ccc(-c2cn3cc(C(=O)NC(C)(C)C)ccc3n2)cc1 | 692 |
| CCc1nn2c(CNC(=O)c3cccs3)c(-c3ccccc3)nc2s1 | 866 |
| CNC(=O)[C@@H]1CN(C(=O)Cc2c(C)noc2C)C[C@H]1c1nc(C)no1 | 599 |
| CC(NC(=O)Cc1cccn1-c1ccc(F)cc1)c1ccccc1 (stereo not drawn) | 962 |
| COc1ccc(-n2nc(N3CCN(C(=O)CC4CCCC4)CC3)ccc2=O)cc1 | 800 |
| O=C(Cn1nc(N2CCOCC2)c2ccccc2c1=O)N1CCN(c2ccccc2)CC1 | 800 |
| Cn1nc(-c2nnc(-c3ccccc3Cl)o2)c2c1CCN(C(=O)Nc1ccccc1)C2 | 849 |
| CC(C)n1cc(S(=O)(=O)Nc2ccc(F)c(F)c2)c2cccnc21 | 936 |
| CC(C)n1cc(CN2CCCCCNC(=O)[C@@H]3CCC[C@@H]32)c2ccccc21 | 701 |
| Cc1cc2c(cc1S(=O)(=O)N(C)CC(=O)N1CCN(c3ccccn3)CC1)OCC(=O)N2 | 583 |
| CC(C)N1CCn2c(nc3cc(C(=O)NC4CCCCCC4)ccc32)C1=O | 750 |
| COCC(C)(O)CNC(=O)c1ccco1 (stereo not drawn) | 549 |
